# Data: PubChem BioAssay (NCI)
# Values joined by “and” are separate entries in the source; they are usually repeats but may differ in a detail not shown here. Identical values can stand only once.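 Dose response: 5 concentrations. Exposure: 48 h. Format: 96-well plates. Endpoint: linear interpolation; highest concentration if not reached. GI50: concentration for 50% inhibition of growth. The concentration for full growth arrest is given as TGI.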
# What was measured:
# Assay in all cases: growth of human tumour cells (NCI), 48 h
# DMS 273 small cell lung = system: DMS 273 small cell lung
# DMS 114 small cell lung = system: DMS 114 small cell lung
# HS 578T breast = system: HS 578T breast
# DU-145 prostate = system: DU-145 prostate
# T-47D breast = system: T-47D breast
# MDA-N = system: MDA-N
# MDA-MB-231 breast = system: MDA-MB-231 breast
# HOP-18 NSCLC = system: HOP-18 NSCLC
# RXF-631 renal = system: RXF-631 renal
# MDA-MB-435 = system: MDA-MB-435
Compound,TGI (DMS 273 small cell lung),TGI (DMS 114 small cell lung),TGI (DU-145 prostate),TGI (T-47D breast),TGI (MDA-N),TGI (MDA-MB-231 breast),TGI (HOP-18 NSCLC),TGI (RXF-631 renal),also measured
O=C1c2cccc3cc([N+](=O)[O-])cc(c23)C(=O)N1CCNCCNCCNCCN1C(=O)c2cccc3cc([N+](=O)[O-])cc(c23)C1=O,0.177 µM and 0.23 µM,0.41 µM and 0.264 µM,,,,,,,
CC(C)NCCNC(=O)c1ccccc1Nc1c(Cl)cccc1Cl,26.6 µM,23.4 µM,,,,,,,
O=C(O)C(=Cc1ccnc2ccccc12)C(=O)O,,,> 100 µM,> 100 µM,> 100 µM,> 100 µM,,,TGI (HS 578T breast): > 100 µM
Cc1cccc(C(C)(C)C)c1NC(=O)C(=O)C(C(=O)/C=C\c1ccccc1)C1OC(=O)c2ccccc21 (stereo unspecified),,> 100 µM,,,,,> 100 µM,> 100 µM,
COC(=O)C(CCS(=O)(=O)CC(=O)C(=O)Nc1cccc(C(C)=O)c1)C(=O)OC,> 100 µM,> 55.2 µM,,,,,> 100 µM,> 100 µM,
C=C1[C@@H](C)[C@H]2[C@H](Cc3ccccc3)NC(=O)[C@]23OC(=O)/C=C/[C@H](O)CCC[C@@H](C)C/C=C/[C@H]3[C@@H]1O,> 97 µM,> 100 µM,> 100 µM,> 100 µM,> 100 µM,> 100 µM,3.03 µM,,
O=C(/C=C/c1ccc(OCC(=O)N2CCN(c3ccccc3)CC2)cc1)c1ccc(Cl)cc1,> 100 µM,> 100 µM,> 100 µM,> 100 µM,> 100 µM,> 86.3 µM,> 100 µM,> 100 µM,TGI (HS 578T breast): 62.3 µM; TGI (MDA-MB-435): > 100 µM
CCOc1ccc(N=Cc2cccc3cccnc23)cc1,> 100 µM,> 100 µM,,,,,> 100 µM,> 100 µM,
[N-]=[N+]=NC(c1cn(C2CC(O)C(CO)O2)c(=O)[nH]c1=O)C(Br)I (stereo unspecified),> 100 µM,> 100 µM,,,,,,,
O=C1C(Cl)C(c2cccc(O)c2)N1n1cnc2ccccc2c1=O (stereo unspecified),> 100 µM,> 100 µM,,,,,> 100 µM,,
CCCCCCCCCC(=O)CC(=O)c1ccc(O)cc1O,74.1 µM,,,,,,81.9 µM,,
O=S(=O)([O-])c1cccc2cccc(N=Cc3ccccc3[O-])c12.O=S(=O)([O-])c1cccc2cccc(N=Cc3ccccc3[O-])c12.[O]=[U]=[O],> 100 µM,> 100 µM,,,,,> 100 µM,,GI50 (HOP-18 NSCLC): > 100 µM; GI50 (DMS 273 small cell lung): 42.7 µM; GI50 (DMS 114 small cell lung): 54 µM
CC(C)N(C(=O)C12C3C4C5(C#N)C3C1(I)C5C42I)C(C)C (stereo unspecified),> 100 µM,> 59.7 µM,,,,,> 100 µM,,
COC(=O)C1CC(C(=O)OC)c2nc3cc(C)ccc3nc21 (stereo unspecified),> 100 µM,> 100 µM,,,,,> 100 µM,> 100 µM,
COc1cc2oc(=O)ccc2cc1C1OC(=O)C2OC21C (stereo unspecified),,,> 100 µM,> 100 µM,> 100 µM,> 100 µM,,,TGI (HS 578T breast): > 100 µM; TGI (MDA-MB-435): > 100 µM
OC1(C(O)(c2ccc(-c3ccccc3)cc2)c2ccc(-c3ccccc3)cc2)CCCCC1,,,> 100 µM,> 100 µM,> 100 µM,> 100 µM,,,TGI (HS 578T breast): > 100 µM; TGI (MDA-MB-435): > 100 µM
O=C(O)CNc1c2ccccc2nc2ccccc12,> 100 µM,> 100 µM,,,,,,> 100 µM,
CC1=C(/C=C/C(C)=C\C=C\C(C)=C\C(=O)Nc2ccc3c(c2)OCO3)C(C)(C)CCC1,,,> 100 µM,> 100 µM,> 100 µM,> 100 µM,,,GI50 (HS 578T breast): > 100 µM; TGI (HS 578T breast): > 100 µM; GI50 (MDA-MB-435): 16.7 µM; TGI (MDA-MB-435): > 100 µM; GI50 (DU-145 prostate): > 100 µM; GI50 (T-47D breast): 25.4 µM; GI50 (MDA-N): 55.7 µM; GI50 (MDA-MB-231 breast): > 100 µM
C/C(=N/S(=O)(=O)c1ccc(Cl)c(Cl)c1)OCC(C)(C)C,,,> 100 µM,> 100 µM,> 100 µM,> 100 µM,,,TGI (HS 578T breast): > 100 µM; TGI (MDA-MB-435): > 100 µM
CC(CN(CP(=O)([O-])[O-])CP(=O)([O-])[O-])N(CP(=O)([O-])[O-])CP(=O)([O-])[O-].N.N.[Pt+2] (stereo unspecified),> 100 µM,,,,,,> 100 µM,,GI50 (HOP-18 NSCLC): 26.1 µM; GI50 (DMS 273 small cell lung): > 100 µM
N#CC(NNC(=O)c1ccccc1O)c1ccc(O)cc1 (stereo unspecified),> 100 µM,8.62 µM,,,,,> 100 µM,,
CCCN(CCCCC(NC(C)=O)C(=O)NCc1ccccc1)C(=O)NCCCl (stereo unspecified),> 100 µM,> 100 µM,,,,,> 100 µM,> 100 µM,
